# Values of other authors, collected in patent US7838561B2, “Method for preventing or treating cardiac hypertrophy” (Wisconsin Alumni Research Foundation, priority 2004, dated 2010).
# pKd: −log10 of the molar value. Entries after “also recorded” stand apart in the source; their conditions may differ. Where two headings read alike, the source gives them in different places.
# Columns and labels:
# [1] = test system: nuclear retinoid receptors
# [2] = test system: RAR and RXR
# [3] = biological target: RBP (Homo sapiens, UniProt P02753)
# [4] = in vivo
# [5] = biological target: T1, RARγ (Homo sapiens, UniProt P13631)
# T1 sequence (P13631 1-454): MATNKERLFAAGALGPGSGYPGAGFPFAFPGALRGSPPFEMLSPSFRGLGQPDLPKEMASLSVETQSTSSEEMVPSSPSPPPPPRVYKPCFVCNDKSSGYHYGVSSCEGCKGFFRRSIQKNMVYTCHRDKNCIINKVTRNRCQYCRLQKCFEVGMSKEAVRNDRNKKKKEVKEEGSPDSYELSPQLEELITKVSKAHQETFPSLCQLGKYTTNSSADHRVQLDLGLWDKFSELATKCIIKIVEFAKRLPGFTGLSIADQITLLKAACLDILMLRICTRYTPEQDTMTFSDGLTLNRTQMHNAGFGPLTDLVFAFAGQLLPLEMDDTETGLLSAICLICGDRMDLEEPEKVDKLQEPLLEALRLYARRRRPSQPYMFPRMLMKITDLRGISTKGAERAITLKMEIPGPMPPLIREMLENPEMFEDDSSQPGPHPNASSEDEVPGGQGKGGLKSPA
# [6] = test system: human cervical cancer cell line ECE16-1
# [7] = biological target: T2, RARα (Homo sapiens, UniProt P10276)
# T2 sequence (P10276 1-462): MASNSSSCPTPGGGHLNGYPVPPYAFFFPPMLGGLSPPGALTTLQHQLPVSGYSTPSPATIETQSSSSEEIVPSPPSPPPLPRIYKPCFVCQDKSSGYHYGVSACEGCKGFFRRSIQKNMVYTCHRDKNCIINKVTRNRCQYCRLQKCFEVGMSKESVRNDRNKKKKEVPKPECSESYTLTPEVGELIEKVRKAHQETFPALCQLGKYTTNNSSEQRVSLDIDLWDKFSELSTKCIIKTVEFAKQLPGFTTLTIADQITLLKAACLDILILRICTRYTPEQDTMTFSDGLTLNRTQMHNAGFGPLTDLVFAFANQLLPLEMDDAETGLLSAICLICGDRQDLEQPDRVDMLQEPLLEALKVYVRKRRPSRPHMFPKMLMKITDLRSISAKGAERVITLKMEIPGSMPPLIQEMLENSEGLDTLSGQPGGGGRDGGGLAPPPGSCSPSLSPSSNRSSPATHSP
# [8] = topical, 0, 1.44, 7.2, 36.0 μmol/kg/day, mice
# [9] = biological target: T3, RARβ (Homo sapiens, UniProt P10826)
# T3 sequence (P10826 1-455): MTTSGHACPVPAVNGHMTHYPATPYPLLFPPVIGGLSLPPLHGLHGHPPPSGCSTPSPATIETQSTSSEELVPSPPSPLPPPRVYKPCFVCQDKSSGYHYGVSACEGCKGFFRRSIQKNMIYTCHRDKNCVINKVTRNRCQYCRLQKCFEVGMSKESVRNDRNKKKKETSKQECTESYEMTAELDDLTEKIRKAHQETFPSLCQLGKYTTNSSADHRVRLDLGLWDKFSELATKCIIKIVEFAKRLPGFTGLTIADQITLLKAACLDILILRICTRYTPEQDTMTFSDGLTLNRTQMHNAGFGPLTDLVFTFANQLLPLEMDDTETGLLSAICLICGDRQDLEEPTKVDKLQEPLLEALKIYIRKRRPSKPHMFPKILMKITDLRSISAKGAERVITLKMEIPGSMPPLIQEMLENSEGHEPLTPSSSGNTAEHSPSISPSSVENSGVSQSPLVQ
# [10] = test system: RARs
# [11] = biological target: T1, RARγ; remark: listed apart in the source
# [12] = biological target: T3, RARβ; remark: listed apart in the source
# [13] = test system: acute promyelocytic leukemia; conditions: RA triggers differentiation
# [14] = biological target: T2, RARα; remark: listed apart in the source
# [15] = test system: mouse limb bud chondrocytes
# [16] = test system: AP-1
# [17] = test system: rabbit HIG-82 synovial fibroblasts; conditions: 0.01 to 10 μM
# [18] = test system: testicular cells
# [19] = ip, 15 mg/kg/d
# [20] = 20 mg/kg/day, 7 days, subcutaneous, rats
# [21] = test system: testicular cells; conditions: rabbits, 2, 10, 50 mg/kg orally for 1 wk
# [22] = test system: gastrulation-stage zebrafish embryo
# [23] = test system: mammary epithelial cell; conditions: 1 μM
# [24] = test system: RARs; conditions: in vitro
# [25] = test system: prostate carcinoma cell lines
# [26] = test system: bone marrow granulocytic precursors; conditions: oral, 0.5 mg/kg/day for 10 days, mice
compound,measurement,setting,value
"CC1=C(/C=C/C(C)=C/C=C/C(C)=C/C(=O)Nc2ccc(O)cc2)C(C)(C)CCC1 [Fenretinide, N-[4-hydroxyphenyl]retinamide]",trans-activation of the nuclear retinoid receptors,[1],poorly trans-activates the nuclear retinoid receptors
same,binding to RARs and RXRs,[2],weakly bind
same,binding to RARs and RXRs,[2]; listed as 4-hydroxphenylretinamide,weakly
same,binding to RBP and effect on RBP-TTR,[3],"binds to RBP, displacing RBP from transthyretin (TTR)"
same,concentrations of vitamin A and RBP in the bloodstream,[4],lower the concentrations of both vitamin A and retinol binding protein (RBP)
same,symptoms of vitamin A insufficiency,[4],impaired dark vision adaptation and epithelial keratosis
Cc1ccc(C2=CCC(C)(C)c3ccc(C#Cc4ccc(C(=O)O)cc4)cc32)cc1 [AGN 193109],hormone action of RA in skin,"later in development, single oral dose of 100 mg/kg",suppresses the hormone action of RA in skin
same,placental transfer,pregnant mouse,readily crosses the placenta
same,antagonism of retinoid-specific events in craniofacial development,"pregnant mouse, 1 mg/kg single oral dose",sufficient to antagonize retinoid-specific events in craniofacial development
same,pKd,[5],8.15
same,partial agonist activity,[6],did not have partial agonist activity
same,"retinoid-mediated activities (proliferation, keratin & RARβ gene expression)","[6]; 10 nM, 100 nM",suppresses retinoid-mediated activities
same,pKd,[7],7.80
same,"effect on TTNPB toxicity (cutaneous irritation, weight loss, mortality)",[8],counteracts the toxicity symptoms
same,pKd,[9],8.15
same,Receptor Specificity,[10],pan-RAR antagonist; also recorded: RARαβγ
CC1=C(/C=C/C(C)=C/C=C/C(C)=C/C(=O)O)C(C)(C)CCC1 [All-trans-retinoic acid],Receptor Specificity,[10],RARαβγ
CCCCCCCOc1cc2c(cc1/C(C)=C/c1ccc(C(=O)O)cc1)C(C)(C)CCS2(=O)=O [Ro 41-5253],pKd,[5],5.48
same,pKd,[7],7.22
same,pKd,[9],5.62
same,Receptor Specificity,[10],RARα
CC1(C)CC=C(c2ccccc2)c2cc(C(=O)Nc3ccc(C(=O)O)cc3)ccc21 [BMS 185411],agonist or antagonist action at RARγ,[11],weak agonist
same,agonist or antagonist action at RARβ,[12],agonist
same,pKd,[5],~4.70
same,activity in the acute promyelocytic leukemia assay,[13],no activity
same,pKd,[7],~6.82
same,agonist or antagonist action at RARα,[14],antagonist
same,pKd,[9],~5.89
same,Receptor Specificity,[10],RARα
O=C(O)c1ccc2cc(-c3ccc(O)c(C45CC6CC(CC(C6)C4)C5)c3)ccc2c1 [CD437],binding to RARs and RXRs,[2],weakly bind
CC1(C)CC=C(c2cnc3ccccc3c2)c2cc(C(=O)Nc3ccc(C(=O)O)cc3)ccc21 [BMS 614],antagonism of RARγ transactivation,[11],no antagonism
same,antagonism of RARβ transactivation,[12],at best modestly
same,RARγ Kd,[5],not bound
same,pKd,[7],8.60
same,agonist or antagonist action at RARα,[14],antagonist
same,molar excess to RA at which RARα transactivation is antagonised,[14],100 fold
same,RARβ Kd,[9],not bound
same,Receptor Specificity,[10],RARα
Cc1ccc(C2=CC(C)(C)Oc3c(Br)cc(C(=O)Nc4ccc(C(=O)O)c(F)c4)cc32)cc1 [AGN 194301],"differentiation of limb bud chondrocytes, Sox9 induction",[15]; 1 μM,overcome RA signaling and permit the differentiation of mouse limb bud chondrocytes
same,pKd,[5],5.14
same,pKd,[7],8.52
same,pKd,[9],6.49
same,Receptor Specificity,[10],RARα
BMS 189453,AP-1 activity,[16],represses AP-1 activity
same,gene expression of pro-inflammatory collagenase,[17],suppresses gene expression of pro-inflammatory collagenase
same,agonist or antagonist action at RARγ,[11],antagonist
same,agonist or antagonist action at RARβ,[12],weak RARβ agonist
same,overt toxicity,"[18]; 2, 10, 50 mg/kg doses",not overtly toxic
same,testicular atrophy after ceasing treatment,"[18]; 30 days after ceasing treatment, 2-50 mg/kg",testicular atrophy was seen at even low doses
same,overt toxicity,"[18]; rats, 240 mg/kg daily for 30 days",Overt toxicity was observed
same,testicular toxicity,"[18]; rats, 2, 10, 50 mg/kg for 1, 3, 7 days",caused the atrophy and degeneration of testicular cells
same,overt toxicity or hypovitaminosis A,[19],not observed
same,inflammation and joint erosion,"[19]; mouse and rat, two models","delayed the onset, severity, and progression of inflammation and joint erosion"
same,pKd,[5],~7.70
same,progression of experimental glomerulonephritis,[20],reduce the progression of experimental glomerulonephritis
same,"toxicity (eating or drinking, posturing or behavior, weight loss)",[20],did not show toxicity
same,pKd,[7],~7.82
same,testicular toxicity,[21],caused the atrophy and degeneration of testicular cells
same,agonist or antagonist action at RARα,[14],antagonist
same,effect on myocardiogenesis,[22],suppress myocardiogenesis
same,mammary epithelial cell growth,[23],inhibits mammary epithelial cell growth
same,transactivation of the RARs,[24],does not transactivate the RARs
same,Receptor Specificity,[10],RARαγ
CCCCCCCOc1cc2c(cc1/C(C)=C/C=C/C(C)=C/C(=O)O)C(C)(C)CCS2(=O)=O [Ro 46-5471],pKd,[5],6.62
same,pKd,[7],7.57
same,pKd,[9],5.29
same,Receptor Specificity,[10],RARα
CCc1ccc(C2=CC(C)(C)Sc3ccc(C#Cc4ccc(C(=O)O)cc4)cc32)cc1 [AGN 194310],potency relative to all-trans-retinoic acid,[25],12-22 times
same,frequency of bone marrow granulocytic precursors,[26],sufficient to elevate the frequency of bone marrow granulocytic precursors
same,signs of ill health or abnormal pathology,[26],did not show signs of ill health or abnormal pathology
same,"differentiation of limb bud chondrocytes, Sox9 induction",[15]; 50 nM,overcome RA signaling and permit the differentiation of mouse limb bud chondrocytes
same,pKd,[5],8.30
same,pKd,[7],8.52
same,pKd,[9],8.70
same,Receptor Specificity,[10],pan-RAR antagonist; also recorded: RARαβγ
